Assay results published in article PMC7091366 (Archives of Pharmacal Research, 2014).
In brackets after ≈: the same amount, converted by molar mass. Entries after “also recorded” stand apart in the source; their conditions may differ.

Legend:
[1] = test system: GAS-driven promoter (pGAS-Luc) in BHK-21 cells; test: GAS-driven promoter dual-luciferase reporter assay; type: cell-based, baby hamster; conditions: 10 μg/ml, 4 h, versus untreated cells
[2] = test system: Japanese encephalitis virus (JEV); test: Quantitative assay of JEV yields by real-time RT-PCR; type: cell-based; conditions: for Ct (real-time RT-PCR of JEV RNA in supernatant) / ΔCt (Ct experimental − Ct control) / Reduction in virus RNA loads: 10 μg/ml; for Ct (real-time RT-PCR of JEV RNA in supernatant) / ΔCt (Ct experimental − Ct control): JEV MOI 1, BHK-21 cells, 72 h; for Reduction in virus RNA loads: supernatant of infected BHK-21 cells, three days post infection; for inhibition at 10 µg/mL: Japanese encephalitis virus, BHK-21, read-out: Inhibition of JEV yields
[3] = test system: Japanese encephalitis virus (JEV) strain T1P1; test: JEV plaque reduction assay in BHK-21 cells; type: cell-based; conditions: JEV 100 pfu, BHK-21 monolayer, plaques after 3 days
Cell viability = type: cell-based, baby hamster; conditions: hamster, BHK-21 cells, CC50, BHK-21 cells, MTT
BHK-21 cells = test: Cell viability; type: cell-based, baby hamster; conditions: 72 h, MTT

Compound | Activity of GAS-driven promoter (relative firefly luciferase) ([1]; listed as aloe emodin) | Activity of GAS-driven promoter (relative firefly luciferase) ([1]; listed as aloe-emodin) | Ct (real-time RT-PCR of JEV RNA in supernatant) [2] | ΔCt (Ct experimental − Ct control) [2] | Reduction in virus RNA loads [2] | inhibition at 10 µg/mL [2] [%] | IC50 (JEV plaque reduction) [3] [µg/mL] | CC50 at 72 h (Cell viability) [µg/mL] | Activity of GAS-driven promoter (relative firefly luciferase) [1] | CC50 (BHK-21 cells) [µg/mL]
O=C1c2cccc(O)c2C(=O)c2c(O)cc(CO)cc21 [Aloe-emodin] | significantly activated | significantly increased | 32.25 | 6.72 | more than 1 log | 90 | 17.39 ± 0.58 (≈ 64.4 µM) | 20.2 ± 1.01 (≈ 74.7 µM) |  | 
Cc1cc(O)c2c(c1)C(=O)c1cccc(O)c1C2=O [Chrysophanol] |  |  | 29.26 | 3.73 | more than 1 log | 90 | 15.82 ± 2.62 (≈ 62.2 µM) | 18.2 ± 5.53 (≈ 71.5 µM) | significantly activated; also recorded: significantly increased | 
Cc1cc(O)c2c(c1)C(=O)c1cc(O)cc(O)c1C2=O [Emodin] |  |  |  |  |  |  |  |  |  | 5.49 ± 1.82 (≈ 20.3 µM)
COc1cc(O)c2c(c1)C(=O)c1cc(C)cc(O)c1C2=O [Physcion] |  |  |  |  |  |  |  | 20.7 ± 4.66 (≈ 72.8 µM) |  | 
